In this assay the test system is primary cultured hepatic parenchymal cells (初代培養肝実質細胞). Kind of assay: Proliferation of primary cultured rat hepatic parenchymal cells: DNA synthesis (3H-thymidine incorporation) and number of nuclei. The following applies: for EC50: Rattus norvegicus; for proliferation-promoting effect: compound alone, low-density culture, 4 h, result in words. In general terms: Dividing cells build labelled thymidine or BrdU into new DNA.

By EC50 is commonly meant the concentration that produces a half-maximal response. Lower therefore signals a more potent agent.

With `CC1(C)[C@@H](O)CC[C@]2(C)[C@H]3C(=O)C=C4[C@@H]5C[C@@](C)(C(=O)O)CC[C@]5(C)CC[C@@]4(C)[C@]3(C)CC[C@@H]12` [グリチルレチン酸, reference compound], the EC50 was determined as 5 nM and the proliferation-promoting effect entry is reported as “用量依存的に促進効果を示した”.
`CC1(C)[C@@H](O)CC[C@]2(C)[C@H]3CC=C4[C@@H]5C[C@@](C)(C(=O)O)CC[C@]5(C)CC[C@@]4(C)[C@]3(C)CC[C@@H]12` [化合物(11), 11−デオキソグリチルレチン酸]: it took 0.04 nM to reach a half-maximal effect (EC50) and the proliferation-promoting effect result is on record as “用量依存的に促進効果を示した”. Moreover, where the note is “fold stronger than glycyrrhetinic acid (グリチルレチン酸), by EC50 value”, the “proliferation-promoting effect relative to glycyrrhetinic acid (by EC50)” value is reported as ~100 倍 (fold).
For `C[C@]1(C(=O)O)CC[C@]2(C)CC[C@]3(C)C(=CC[C@@H]4[C@@]5(C)CC[C@H](O)[C@](C)(CO)[C@@H]5CC[C@]43C)[C@@H]2C1` [化合物(12)], the EC50 turned out to be 4 nM and the proliferation-promoting effect entry is reported as “用量依存的に促進効果を示した”.

Source of the values: patent JP2009062322A, “肝実質細胞再生促進剤” (Minophagen Pharmaceutical Co Ltd, priority 2007, dated 2009).
